Patent US20040224892A1, “Oligosaccharides in cosmetic or dermatological compositions for stimulating adhesion of keratinocytes to major proteins of the dermoepidermal junction and restoration of epidermal cohesion” (Laboratoires de Biologie Vegetale Yves Rocher, a …, priority 2001, published 2004)

What was measured:
[1] = test system: normal human keratinocytes on laminin V; experiment: Adhesion of normal human keratinocytes on laminin V (colorimetric crystal violet adherence test); type: cell-based; details: manganese chloride 0.5 mM, 45 minutes
Procedure: The culture medium employed was the defined medium for keratinocyte culture 154 (+additive HKGS) manufactured by Cascade Inc. (USA) and marketed by Tebu (France) containing 0.2 mM of CaCl2, pH 7.2 to 7.4. The keratinocytes were obtained according to the technique described by Boyce and Ham (Boyce S T, Ham R G, J. Invest. Dermatol., 1983, 81, 33s-40s). Pieces of human skin obtain from human prepuces (circumcision) were treated in a manner to isolate their basal human keratinocytes. 3·10^4 live cells were then seeded per cm^2 on 25-cm^2 tissue culture dishes (Coming, Polylabo, France). The keratinocytes were cultured at 37° C. in an incubator with CO2 (5% of CO2, 95% of air and 98% humidity). The medium was changed every two days. Subculture took place when the cells reached subconfluence. The cell layer was then rinsed with PBS, then the cells were trypsinated using the conventional trypsination technique (Trypsin-EDTA (0.05-0.02%) at 37° C.). The cells were then seeded in 75-cm^2 culture dishes. Collagen IV (Becton Dickinson, France), fibronectin (Becton Dickinson, France) and laminin 5, purified in the laboratory (Pousselle P. et al., J. Cell. Biol., 1991, 114(3); 567-576) were used in our experiments. […] An absorbance reading was performed at 570 nm using an ELISA plate reader. […] We then calculated the means of the three absorbance values for each of the triplicates. […]

[2] = test system: normal human keratinocytes on collagen IV; experiment: Adhesion of normal human keratinocytes on collagen IV (colorimetric crystal violet adherence test); type: cell-based; details: manganese chloride 0.5 mM, 45 minutes
Procedure: The culture medium employed was the defined medium for keratinocyte culture 154 (+additive HKGS) manufactured by Cascade Inc. (USA) and marketed by Tebu (France) containing 0.2 mM of CaCl2, pH 7.2 to 7.4. The keratinocytes were obtained according to the technique described by Boyce and Ham (Boyce S T, Ham R G, J. Invest. Dermatol., 1983, 81, 33s-40s). Pieces of human skin obtain from human prepuces (circumcision) were treated in a manner to isolate their basal human keratinocytes. 3·10^4 live cells were then seeded per cm^2 on 25-cm^2 tissue culture dishes (Coming, Polylabo, France). The keratinocytes were cultured at 37° C. in an incubator with CO2 (5% of CO2, 95% of air and 98% humidity). The medium was changed every two days. Subculture took place when the cells reached subconfluence. The cell layer was then rinsed with PBS, then the cells were trypsinated using the conventional trypsination technique (Trypsin-EDTA (0.05-0.02%) at 37° C.). The cells were then seeded in 75-cm^2 culture dishes. Collagen IV (Becton Dickinson, France), fibronectin (Becton Dickinson, France) and laminin 5, purified in the laboratory (Pousselle P. et al., J. Cell. Biol., 1991, 114(3); 567-576) were used in our experiments. […] An absorbance reading was performed at 570 nm using an ELISA plate reader. […] We then calculated the means of the three absorbance values for each of the triplicates.

Manganese chloride [MnCl2]
% adherence (cells alone = 100%) ([1]; Laminin 5 1.5 μg/ml): 109%
% adherence (cells alone = 100%) ([1]; Laminin 5 3 μg/ml): 97%
% adherence (cells alone = 100%) ([2]; Collagen IV 10 μg/ml): 280%
% adherence (cells alone = 100%) ([2]; Collagen IV 20 μg/ml): 357%
